Five molecules from patent US20220386606A1, “SPECIFICALLY SUBSTITUTED 3-PHENYL-5-SPIROCYCLOPENTYL-3-PYRROLIN-2-ONES AND THEIR USE AS HERBICIDES” (Bayer Aktiengesellschaft, priority 2019, published 2022) can be followed below.

The test system of assay [1] is DIGSA. The assay is described as follows: Post-emergence herbicidal action against DIGSA. The class given is in vivo, Digitaria sanguinalis. Conditions: 80 g/ha, visual assessment about 3 weeks after treatment vs untreated controls. The protocol: (§1) Seeds of monocotyledonous and dicotyledonous weed and crop plants are laid out in sandy loam soil in wood-fiber pots, covered with soil and cultivated in a greenhouse under good growth conditions. 2 to 3 weeks after sowing, the test plants are treated at the one-leaf stage. The compounds of the invention, formulated in the form of wettable powders (WP) or as emulsion concentrates (EC), are then sprayed onto the green parts of the plants as aqueous suspension or emulsion at a water application rate equating to 600 to 800 l/ha with addition of 0.2% wetting agent. After the test plants have been left to stand in the greenhouse under optimal growth conditions for about 3 weeks, the action of the preparations is assessed visually in comparison to untreated controls (herbicidal action in percent (%): 100% activity=the plants have died, 0% activity=like control plants).

Assay [2] concerns ECHCG. The assay is described as follows: Pre-emergence herbicidal action against ECHCG. The format is in vivo, Echinochloa crus-galli. Conditions: 320 g/ha, scored visually after 3 weeks vs untreated controls. The source says:
(§2) Seeds of monocotyledonous and dicotyledonous weed plants and crop plants are laid out in sandy loam soil in wood-fiber pots and covered with soil. The compounds of the invention, formulated in the form of wettable powders (WP) or as emulsion concentrates (EC), are then applied to the surface of the covering soil as aqueous suspension or emulsion at a water application rate equating to 600 to 800 L/ha with addition of 0.2% wetting agent.
(§3) After the treatment, the pots are placed in a greenhouse and kept under good growth conditions for the trial plants. The damage to the test plants is scored visually after a test period of 3 weeks by comparison with untreated controls (herbicidal activity in percent (%): 100% activity=the plants have died, 0% activity=like control plants).

Assay [3] has as its system LOLRI. Kind of assay: Post-emergence herbicidal action against LOLRI. The format is in vivo, Lolium rigidum. Conditions: 80 g/ha, visual assessment about 3 weeks after treatment vs untreated controls. The protocol: as §1
Assay [4] concerns SETVI. Kind of assay: Post-emergence herbicidal action against SETVI. The format is in vivo, Setaria viridis. Conditions: 80 g/ha, visual assessment about 3 weeks after treatment vs untreated controls. How it is done: as §1
A further assay deals with VIOTR. The assay is described as follows: Pre-emergence herbicidal action against VIOTR. The class given is in vivo, Viola tricolor. Conditions: 320 g/ha.
Source text: as §2, §3

The test system of assay [5] is ECHCG. Kind of assay: Post-emergence herbicidal action against ECHCG. The format is in vivo, Echinochloa crus-galli. The following applies: 80 g/ha, visual assessment about 3 weeks after treatment vs untreated controls. How it is done:
as §1

The subject of assay [6] is ALOMY. Kind of assay: Post-emergence herbicidal action against ALOMY. Conditions: 80 g/ha, visual assessment after about 3 weeks. The format is in vivo, Alopecurus myosuroides. The protocol:
as §1

In a further assay the test system is AMARE. Kind of assay: Pre-emergence herbicidal action against AMARE. The format is in vivo, Amaranthus retroflexus. Conditions: 320 g/ha.
Source text: as §2, §3

Assay [7] relates to AVEFA. The assay is described as follows: Post-emergence herbicidal action against AVEFA. The format is in vivo, Avena fatua. The following applies: 80 g/ha, visual assessment after about 3 weeks. The protocol:
as §1

Assay [8] concerns ALOMY. The assay is described as follows: Pre-emergence herbicidal action against ALOMY. The format is in vivo, Alopecurus myosuroides. The following applies: 320 g/ha, scored visually after 3 weeks vs untreated controls.
Source text: as §2, §3

The test system of assay [9] is DIGSA. The assay is described as follows: Pre-emergence herbicidal action against DIGSA. The format is in vivo, Digitaria sanguinalis. The following applies: 320 g/ha, scored visually after 3 weeks vs untreated controls.
Source text: as §2, §3

For assay [10], the system named is SETVI. The assay is described as follows: Pre-emergence herbicidal action against SETVI. The class given is in vivo, Setaria viridis. Conditions: 320 g/ha, scored visually after 3 weeks vs untreated controls.
Source text: as §2, §3

The subject of assay [11] is AVEFA. Kind of assay: Pre-emergence herbicidal action against AVEFA. Conditions: 320 g/ha, scored visually after 3 weeks vs untreated controls. The class given is in vivo, Avena fatua.
Source text: as §2, §3

Assay [12] has as its system LOLRI. Kind of assay: Pre-emergence herbicidal action against LOLRI (Table 8, titled post-emergence at 320 g/ha). The format is in vivo, Lolium rigidum. The following applies: table stands in the pre-emergence section.
Source text: as §2, §3

With `CC#Cc1cc(C)c(C2=C(OC(=O)OCC)C3(CCC(COC)C3)NC2=O)c(OC)c1` (stereo not shown) [Example P-47], the “Post-emergence action against DIGSA in %” value with DIGSA [1] was 100%. Further, in the assay with ECHCG [2], the “Pre-emergence action against ECHCG in %” value is 100%. For the same molecule, the “Post-emergence action against LOLRI in %” value with LOLRI [3] turned out to be 100%. Moreover, the “Post-emergence action against SETVI in %” value in the assay on SETVI [4] was 100%. Further, the “Pre-emergence action against VIOTR in %” value in the assay on VIOTR worked out at 100%. Also, in the assay on ECHCG [5], the “Post-emergence action against ECHCG in %” value is reported as 100%. Moreover, the “Post-emergence action against ALOMY in %” value in the assay on ALOMY [6] was determined as 100%. Further, the “Pre-emergence action against AMARE in %” value in the assay with AMARE is 100%. Also, the “Post-emergence action against AVEFA in %” value in the assay on AVEFA [7] amounted to 90%. Further, in the assay with ALOMY [8], the “Pre-emergence action against ALOMY in %” value came out at 100%. Moreover, in the assay with DIGSA [9], the “Pre-emergence action against DIGSA in %” value is 100%. The “Pre-emergence action against SETVI in %” value with SETVI [10] was 100%. The “Pre-emergence action against AVEFA in %” value in the assay on AVEFA [11] is given as 100%.

`CC#Cc1cc(C)c(C2=C(O)C3(CCC(COCC)C3)NC2=O)c(Br)c1` (stereo not shown) [Example I-21]: the “Post-emergence action against DIGSA in %” value with DIGSA [1] is 100%. Moreover, in the assay on ECHCG [2], the “Pre-emergence action against ECHCG in %” value was found to be 100%. In addition, the “Post-emergence action against SETVI in %” value in the assay on SETVI [4] turned out to be 100%. Besides, the “Pre-emergence action against VIOTR in %” value in the assay on VIOTR is listed as 100%. Also, in the assay with ECHCG [5], the “Post-emergence action against ECHCG in %” value was 100%. In addition, the “Post-emergence action against ALOMY in %” value in the assay on ALOMY [6] turned out to be 100%. Also, the “Pre-emergence action against AMARE in %” value in the assay with AMARE is on record as 100%. In addition, the “Pre-emergence herbicidal action against LOLRI in %” value in the assay on LOLRI [12] is 100%. Also, the “Pre-emergence action against ALOMY in %” value in the assay with ALOMY [8] is 100%. Moreover, the “Pre-emergence action against DIGSA in %” value with DIGSA [9] was found to be 100%. Further, in the assay on SETVI [10], the “Pre-emergence action against SETVI in %” value was 100%. The “Pre-emergence action against AVEFA in %” value in the assay on AVEFA [11] was 100%.

On to `CC#Cc1cc(C)c(C2=C(O)C3(CCC(COCCOC)C3)NC2=O)c(OC)c1` (stereo not shown) [Example I-52], for which the “Pre-emergence action against ECHCG in %” value in the assay with ECHCG [2] stood at 100%. In addition, the “Post-emergence action against LOLRI in %” value in the assay with LOLRI [3] worked out at 90%. For the same molecule, the “Post-emergence action against SETVI in %” value with SETVI [4] is 100%. Besides, in the assay with VIOTR, the “Pre-emergence action against VIOTR in %” value was 80%. In the assay on ECHCG [5], the “Post-emergence action against ECHCG in %” value was 100%. In addition, the “Post-emergence action against ALOMY in %” value in the assay on ALOMY [6] is 100%. Besides, the “Pre-emergence action against AMARE in %” value in the assay with AMARE is given as 80%. Besides, the “Post-emergence action against AVEFA in %” value in the assay with AVEFA [7] is given as 90%. Besides, the “Pre-emergence herbicidal action against LOLRI in %” value with LOLRI [12] was found to be 100%. The “Pre-emergence action against ALOMY in %” value in the assay on ALOMY [8] is on record as 100%. Besides, the “Pre-emergence action against DIGSA in %” value in the assay on DIGSA [9] amounted to 100%. In addition, in the assay on SETVI [10], the “Pre-emergence action against SETVI in %” value was determined as 100%. Moreover, in the assay with AVEFA [11], the “Pre-emergence action against AVEFA in %” value is given as 100%.

Regarding `CC#Cc1cc(F)c(C2=C(OC(=O)C(C)C)C3(CCC(COC)C3)NC2=O)c(OC)c1` (stereo not shown) [Example P-65], the “Post-emergence action against DIGSA in %” value in the assay on DIGSA [1] is on record as 100%. The “Pre-emergence action against ECHCG in %” value with ECHCG [2] is reported as 100%. The “Post-emergence action against LOLRI in %” value in the assay on LOLRI [3] is 100%. In addition, the “Post-emergence action against SETVI in %” value in the assay on SETVI [4] turned out to be 100%. The “Pre-emergence action against VIOTR in %” value in the assay on VIOTR is listed as 80%. Further, in the assay with ECHCG [5], the “Post-emergence action against ECHCG in %” value was found to be 90%. In addition, the “Post-emergence action against ALOMY in %” value in the assay on ALOMY [6] stood at 90%. Moreover, the “Post-emergence action against AVEFA in %” value in the assay on AVEFA [7] is listed as 90%. Besides, the “Pre-emergence herbicidal action against LOLRI in %” value in the assay on LOLRI [12] came out at 100%. In addition, the “Pre-emergence action against ALOMY in %” value in the assay on ALOMY [8] was determined as 100%. The “Pre-emergence action against DIGSA in %” value with DIGSA [9] is reported as 100%. In addition, the “Pre-emergence action against SETVI in %” value in the assay with SETVI [10] is given as 100%. Also, in the assay on AVEFA [11], the “Pre-emergence action against AVEFA in %” value is 100%.

On to `C#CCOCC1CCC2(C1)NC(=O)C(c1c(F)cc(C#CC)cc1OC)=C2OC(=O)OCC` (stereo not shown) [Example P-102], for which, in the assay with DIGSA [1], the “Post-emergence action against DIGSA in %” value amounted to 90%. Also, in the assay on ECHCG [2], the “Pre-emergence action against ECHCG in %” value was found to be 100%. Also, the “Post-emergence action against LOLRI in %” value in the assay on LOLRI [3] worked out at 90%. The “Post-emergence action against SETVI in %” value with SETVI [4] came to 90%. In addition, the “Post-emergence action against ECHCG in %” value with ECHCG [5] is listed as 80%. The “Post-emergence action against ALOMY in %” value in the assay with ALOMY [6] came out at 90%. The “Pre-emergence action against AMARE in %” value in the assay with AMARE turned out to be 90%. The “Post-emergence action against AVEFA in %” value with AVEFA [7] came to 80%. Also, the “Pre-emergence herbicidal action against LOLRI in %” value in the assay on LOLRI [12] came to 100%. The “Pre-emergence action against ALOMY in %” value in the assay on ALOMY [8] worked out at 100%. Further, the “Pre-emergence action against DIGSA in %” value in the assay on DIGSA [9] stood at 100%. In addition, the “Pre-emergence action against SETVI in %” value with SETVI [10] is 100%. The “Pre-emergence action against AVEFA in %” value with AVEFA [11] is listed as 80%.
